Entries after “also recorded” stand apart in the source; their conditions may differ. Where a SMILES comes first, the peptide text is derived from it. [ ]: non-standard residue; d: D form. Nle = CCCC[C@H](N)C(=O)O
Key:
[1] = system: occludin cleavage by calpain (45 kDa occludin cleavage product); assay: Occludin cleavage: immunoprecipitation and immunoblot in 1HAEo- cells; type: cell-based, human; conditions: for Generation of occludin cleavage product in presence of inhibitor: 6 μM BAPTA/AM, 20 μM ALLN, 20 μM GM6001, 25 μM Z-DEVD-FMK
Procedure: (§1) 1HAEo-cells or SAECs were grown to confluence on 10 cm plates, stimulated with heat killed PAO1 (10^7 CFU) or P3C (15 μg/ml), and whole cell lysates made using 60 mM n-octyl-β-D-glucopyranoside (OGP) in TBS (0.1 M Tris-HCl and 0.15 M NaCl, pH 7.8) containing Complete Mini protease inhibitor tablets (Roche), 1 mM sodium orthovanadate and 100 mM sodium fluoride. Monoclonal anti-E-cadherin (BD Pharmingen), polyclonal anti-pan calpain (Santa Cruz Biotechnologies) or monoclonal anti-occludin (Invitrogen/Zymed) antibodies were used for immunoprecipitations followed by the addition of Protein G Agarose beads (Invitrogen) (Chun and Prince, 2006). Immunodetection was performed using monoclonal anti-E-cadherin, polyclonal anti-occludin, anti-pan calpain, anti-calpain 1 and anti-calpain 2 antibodies (Santa Cruz Biotechnology).
1HAEo-cells were transiently transfected with scrambled (control) or calpain 1 and 2 siRNA Smart pool oligos (Dharmacon) (FIGS. 11 and 12). Transfection was carried out using an Amaxa Nucleofector following manufacturer's instructions. Briefly, 10^6 1HAEo-cells were electroporated in 100 μl Buffer L with 1.5 μg of scrambled or siRNA oligo and transferred into pre-warmed 6 well tissue culture dishes. Cells were incubated at 37° C., 5% CO2 for 48 hours before performing experiments.

[2] = system: NF-κB activation, IL-8 production; assay: NF-κB activation and IL-8 production in airway cells; type: cell-based; conditions: cells treated with BAPTA/AM to chelate intracellular Ca2+
[3] = system: SARS-associated coronavirus; conditions: one isolate of the coronavirus; cited from earlier work
[4] = system: E-cadherin cleavage by calpain (100 kDa E-cadherin cleavage product); assay: E-cadherin cleavage: immunoblot in 1HAEo- cells; type: cell-based, human; conditions: airway cells, 4 hr stimulation
Procedure: as §1

[5] = system: epithelial cell junctions of polarized 16HBE cells; assay: Biotin labeling and confocal microscopy of polarized 16HBE monolayers; type: cell-based, human; conditions: 4 h incubation
Procedure: (§2) 16HBE cells were grown on 3 μm pore size Transwell-Clear filters (Corning-Costar) with an air-liquid interface to form polarized monolayers. For confocal imaging, cells were fixed with 4% paraformaldehyde, blocked with 5% normal donkey serum and incubated at 4° C. overnight with the polyclonal pan-calpain (Santa Cruz Biotechnology), monoclonal occludin (Invitrogen/Zymed) and/or monoclonal E-cadherin (BD Pharmingen) antibodies. Alexa Fluor 594 conjugated and Alexa Fluor 488 conjugated secondary antibodies (Invitrogen/Molecular Probes) were added at room temperature for 1 h. After washing, filters were removed from Transwells using a scalpel, mounted with Vectashield with DAPI (Vector Laboratories) onto glass slides and imaged using a Zeiss LSM 510 Meta scanning confocal microscope. For biotin labeling experiments 1 mg/ml EZ-Link Sulfo-NHS-LC-Biotin was added apically for 30 min at 4° C. before fixing the cells. Alexa Fluor 555 conjugated streptavidin (Molecular Probes) was added for detection of biotin.

[6] = system: occludin, E-cadherin and calpain localization in 16HBE cells; assay: Confocal imaging of junctional proteins and calpain in polarized 16HBE cells; type: cell-based, human; conditions: for Co-localization of calpain and E-cadherin: 1 hr stimulation; for Distribution of occludin and E-cadherin at cell junctions: 6 hr exposure
Procedure: as §2

[7] = system: calpain 2 mRNA; assay: Real time PCR of calpains and calpastatin in 1HAEo- cells
[8] = system: polarized 16HBE cells; assay: Bacterial transmigration assay
Procedure: Polarized 16HBE cells were pretreated with media alone, heat killed PAO1 (10^7 CFU), P3C (15 μg/ml), or thapsigargin (0.1 μM) for 4 h. Live PAO1 (2×10^7 CFU) were added apically for 1 h and media from the basal compartment collected and plated on LB agar plates. Bacterial transmigration across monolayers pretreated with 0.02% EGTA was used as a positive control.

[9] = system: calpain; assay: Calpain assay with cell permeable fluorogenic calpain substrate (Boc-LM-CMAC); type: cell-based, human; conditions: 1HAEo- cells and SAEC
Procedure: Confluent monolayers of 1HAEo-cells or SAECs were loaded with 20 μM t-BOC-L-leucine-L-methionine amide (Boc-LM-CMAC), a calpain specific membrane permeable fluorogenic substrate. Cells were stimulated with heat killed PAO1 (10^7 CFU) or P3C (15 μg/ml) and fluorescence was quantified at ex 360 nm and em 465 nm with a Spectrafluor Plus fluorimeter (Tecan).

[10] = system: polarized 16HBE cells; assay: Transepithelial resistance and dextran permeability assays; type: cell-based, human
Procedure: Polarized 16HBE cells grown in 12 mm Transwell-Clear filters (Corning-Costar) were stimulated apically with 10^7 CFU of heat killed PAO1. Transepithelial resistance readings were taken using a Millipore resistance reader which applies a 20 μA square wave alternating current across the monolayers at 12.5 Hz. The resistance of Transwell inserts without cells was used as a baseline control. After 5 h of stimulation, Alexa Fluor 488 labeled dextran (10,000 MW) was added apically for 1 h and fluorescence in the basal compartment monitored at ex 485, em 535 with a SpectraFluor Plus fluorimeter (Tecan). As a positive control, cells were treated apically and basolaterally for 1 h with 0.02% EGTA, an extracellular Ca^2+ chelator which increases paracellular permeability by disrupting cadherin mediated cell-cell adhesion.

[11] = biological target: T1, E-cadherin, P12830
T1 chain: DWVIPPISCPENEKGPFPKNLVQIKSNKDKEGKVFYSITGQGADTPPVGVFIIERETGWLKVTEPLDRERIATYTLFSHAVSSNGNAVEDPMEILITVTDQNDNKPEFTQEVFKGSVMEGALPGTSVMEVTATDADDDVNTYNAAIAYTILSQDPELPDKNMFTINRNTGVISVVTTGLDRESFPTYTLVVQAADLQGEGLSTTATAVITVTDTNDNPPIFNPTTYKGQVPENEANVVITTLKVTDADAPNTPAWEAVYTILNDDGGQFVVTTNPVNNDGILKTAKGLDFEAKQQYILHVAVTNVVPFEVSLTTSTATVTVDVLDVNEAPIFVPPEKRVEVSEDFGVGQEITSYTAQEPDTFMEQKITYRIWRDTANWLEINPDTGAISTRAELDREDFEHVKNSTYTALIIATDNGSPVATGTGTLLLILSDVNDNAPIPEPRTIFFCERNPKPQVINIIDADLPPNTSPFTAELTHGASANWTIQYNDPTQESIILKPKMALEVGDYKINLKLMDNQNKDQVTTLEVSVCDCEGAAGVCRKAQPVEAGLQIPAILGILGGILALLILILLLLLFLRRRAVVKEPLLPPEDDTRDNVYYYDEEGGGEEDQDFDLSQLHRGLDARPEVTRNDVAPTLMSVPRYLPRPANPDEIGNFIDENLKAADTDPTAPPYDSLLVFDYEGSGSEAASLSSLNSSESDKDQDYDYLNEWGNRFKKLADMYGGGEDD

[12] = biological target: T2, occludin, Q16625
T2 chain: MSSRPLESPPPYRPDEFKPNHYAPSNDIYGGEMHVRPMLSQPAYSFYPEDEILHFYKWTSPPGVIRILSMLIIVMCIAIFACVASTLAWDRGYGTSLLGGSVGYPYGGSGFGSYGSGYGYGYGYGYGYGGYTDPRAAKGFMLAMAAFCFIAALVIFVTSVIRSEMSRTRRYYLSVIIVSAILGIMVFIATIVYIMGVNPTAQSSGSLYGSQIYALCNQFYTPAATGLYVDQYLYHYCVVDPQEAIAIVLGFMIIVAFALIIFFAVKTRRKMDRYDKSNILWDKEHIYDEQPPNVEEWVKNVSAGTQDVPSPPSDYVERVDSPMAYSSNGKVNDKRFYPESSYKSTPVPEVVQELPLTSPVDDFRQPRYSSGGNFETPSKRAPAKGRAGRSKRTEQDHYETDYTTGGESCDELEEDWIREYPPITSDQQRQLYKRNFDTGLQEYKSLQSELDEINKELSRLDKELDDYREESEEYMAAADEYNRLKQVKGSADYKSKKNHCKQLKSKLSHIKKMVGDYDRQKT

CCCC[C@@H](C=O)NC(=O)[C@H](CC(C)C)NC(=O)[C@H](CC(C)C)NC(C)=O [ALLN, N-acetyl-leucyl-leucyl-norleucinal] (Ac-Leu-Leu-[Nle]-aldehyde)
Generation of occludin cleavage product in presence of inhibitor [1]: blocked generation of the occludin cleavage product

CC(=O)OCOC(=O)CN(CC(=O)OCOC(C)=O)c1ccccc1OCCOc1ccccc1N(CC(=O)OCOC(C)=O)CC(=O)OCOC(C)=O [BAPTA/AM]
Distal proinflammatory signaling (NF-κB activation, IL-8 production) [2]: unable to activate distal proinflammatory signaling
Generation of occludin cleavage product in presence of inhibitor [1]: substantially decreased

CNC(=O)[C@H](Cc1c[nH]c2ccccc12)NC(=O)[C@@H](CC(=O)NO)CC(C)C [GM6001]
Generation of occludin cleavage product in presence of inhibitor [1]: neither the general matrix metalloproteinase inhibitor GM6001 nor the caspase inhibitor Z-DEVD-FMK blocked

NC(=O)c1ncn([C@@H]2O[C@H](CO)[C@@H](O)[C@H]2O)n1 [Ribavirin]
Virus growth or cell-to-cell spread [3]: does not inhibit

COC(=O)CC[C@H](NC(=O)[C@H](CC(=O)OC)NC(=O)OCc1ccccc1)C(=O)N[C@H](C(=O)N[C@@H](CC(=O)OC)C(=O)CF)C(C)C [Z-DEVD-FMK]
Generation of occludin cleavage product in presence of inhibitor [1]: neither the general matrix metalloproteinase inhibitor GM6001 nor the caspase inhibitor Z-DEVD-FMK blocked

C/C=C(/C)C(=O)O[C@H]1C(C)=C2[C@H]([C@@H]1OC(=O)CCCCCCC)[C@@](C)(OC(C)=O)C[C@H](OC(=O)CCC)[C@@]1(O)[C@H]2OC(=O)[C@@]1(C)O [thapsigargin]
100 kDa E-cadherin cleavage product after stimulation [4]: generation of a 100 kDa E-cadherin cleavage product
Penetration of biotin between cells of polarized monolayer [5]: resulted in the penetration of biotin; also recorded: increase in accessibility of the junctions to biotin
Co-localization of calpain and E-cadherin [6]: increased; also recorded: induced mobilization and co-localization of calpain with E-cadherin

Pam3Cys-Ser-Lys4 [P3C]
Transcription of calpain 2 [7]: increased
100 kDa E-cadherin cleavage product after stimulation [4]: generation of a 100 kDa E-cadherin cleavage product
45 kDa occludin cleavage product after stimulation ([1]; 1HAEo- and SAEC, 1 hour post stimulation): readily identified
Bacterial invasion across the monolayer [8]: no changes
Penetration of biotin between cells of polarized monolayer [5]: resulted in the penetration of biotin; also recorded: increase in accessibility of the junctions to biotin
Calpain activity after exposure to the stimulus [9]: significantly increased; also recorded: sufficient to activate calpain
Calpain activity after exposure to the stimulus ([9]; listed as Pam3Cys): activates calpain 2
Co-localization of calpain and E-cadherin [6]: increased; also recorded: co-localizing with E-cadherin
Co-localization of calpain and occludin ([6]; 1 h stimulation): Increased co-localization; also recorded: co-localized with membrane-associated occludin; also recorded: Increased colocalization
Distribution of occludin and E-cadherin at cell junctions [6]: dramatic loss; also recorded: altered
Distribution of occludin and E-cadherin at cell junctions ([6]; listed as PC3): altered
Transepithelial resistance [10]: no changes

B1: exogenous human calpain 1 (protein)
chain: SEEIITPVYCTGVSAQVQKQRARELGLGRHENAIKYLGQDYEQLRVRCLQSGTLFRDEAFPPVPQSLGYKDLGPNSSKTYGIKWKRPTELLSNPQFIVDGATRTDICQGALGDCWLLAAIASLTLNDTLLHRVVPHGQSFQNGYAGIFHFQLWQFGEWVDVVVDDLLPIKDGKLVFVHSAEGNEFWSALLEKAYAKVNGSYEALSGGSTSEGFEDFTGGVTEWYELRKAPSDLYQIILKALERGSLLGCSIDISSVLDMEAITFKKLVKGHAYSVTGAKQVNYRGQVVSLIRMRNPWGEVEWTGAWSDSSSEWNNVDPYERDQLRVKMEDGEFWMSFRDFMREFTRLEICNLTPDALKSRTIRKWNTTLYEGTWRRGSTAGGCRNYPATFWVNPQFKIRLDETDDPDDYGDRESGCSFVLALMQKHRRRERRFGRDMETIGFAVYEVPPELVGQPAVHLKRDFFLANASRARSEQFINLREVSTRFRLPPGEYVVVPSTFEPNKEGDFVLRFFSEKSAGTVELDDQIQANLPDEQVLSEEEIDENFKALFRQLAGEDMEISVKELRTILNRIISKHKDLRTKGFSLESCRSMVNLMDRDGNGKLGLVEFNILWNRIRNYLSIFRKFDLDKSGSMSAYEMRMAIESAGFKLNKKLYELIITRYSEPDLAVDFDNFVCCLVRLETMFRFFKTLDTDLDGVVTFDLFKWLQLTMFA
in vitro degradation (cleavage) of the immunoprecipitated protein by Ca2+-activated exogenous calpain, immunoblot [11]: exogenous calpain activated by the addition of Ca2+ degraded occludin and E-cadherin, but not claudin-1 or JAM-1
in vitro degradation (cleavage) of the immunoprecipitated protein by Ca2+-activated exogenous calpain, immunoblot [12]: exogenous calpain activated by the addition of Ca2+ degraded occludin and E-cadherin, but not claudin-1 or JAM-1

From patent US20110117106A1, “USES OF CALPAIN INHIBITORS TO INHIBIT INFLAMMATION” (priority 2008, published 2011)
